Patent EP4699605A1, “USE OF NOVEL COMPOUND FOR TREATING INTRACTABLE DISEASES” (YJ Cerapeutics Inc., priority 2023, dated 2024)

Assays:
[1] = test system: Raw 264.7; assay: proNGF production in LPS-stimulated macrophage cell line; assay type: cell-based; settings: Raw 264.7 stimulated with 1 µg/ml of LPS; YJ102 treated 30 minutes before LPS
Protocol: In order to determine whether YJ102 affected the production of proNGF as a ligand of p75, the expression of proNGF in the bladder was confirmed by RT-PCR, Western blot analysis, and immunofluorescence staining. In addition, for further verification, a macrophage cell line Raw 264.7 (Korea Cell Line Bank, Seoul, Korea) was stimulated with 1 µg/ml of LPS, and the effect of YJ102 on the production of proNGF was investigated. At this time, YJ102 was dissolved in DMSO and treated 30 minutes before LPS treatment.

[2] = test system: JMJD3; assay: Signaling pathway analysis in SNI model (Western blot): JMJD3 expression and activation; assay type: in vivo, Sprague-Dawley rats; settings: 4 weeks after nerve injury
Protocol: To determine through which signaling pathway YJ102 inhibited a neuroinflammatory response, there was analyzed increased expression and activation of histone demethylase JMJD3 and expression changes of factors associated with JAK/STAT3 pathway, mTOR pathway, and TRPM7-mediated pathway, which were known as important regulatory mechanisms and epigenetic regulators mediating the neuroinflammatory response, in the tissues of the SNI animal model 4 weeks after nerve injury.

[3] = test system: nerve injury animal models (SCI, LSS, SNI); assay: Mechanical allodynia (von-Frey filaments, 50% paw withdrawal threshold) in nerve injury animal models; assay type: in vivo, Sprague-Dawley rats
Protocol: To be used as a central nerve injury animal model, a traumatic spinal cord injury (SCI) model was prepared (FIG. 1A). Specifically, 230 to 250 g of male adult Sprague-Dawley rats were anesthetized by intraperitoneal injection of chloral hydrate (500 mg/kg), and then the back and neck regions were shaved, and the spinal cord under the back and neck regions was exposed without damaging the dura mater, and a laminectomy was performed at T9 to T10 levels. To stabilize the spine, the spinous processes of T8 and T11 were fixed, and the spine was damaged by free-falling a 10 g weight from a height of 25 mm using an NYU impactor onto the back surface of the exposed spinal cord and then the rats were left in a temperature and humidity-controlled chamber overnight while covering the muscles and skin. After surgery, the rats were subcutaneously injected with a supplement solution (5 ml, lactated ringer) and injected with antibiotics (gentamicin, 5 mg/kg, intramuscular injection) once daily for 5 days. The body weight, remaining food, and the weight of water were confirmed and recorded for all animals, and the bladder was emptied twice daily by passive bladder massage until reflex micturition was established. At this time, a Sham group was a group that was subjected to only laminectomy without damage.
To be used as a peripheral nerve injury animal model, a lumbar spinal stenosis (LSS) model was prepared (FIG. 1B). Specifically, 260 to 280 g of adult male Sprague-Dawley rats were anesthetized with intraperitoneal injection of chloral hydrate (500 mg/kg), the back region was shaved, and then the spinal plate was exposed at L4 to S2 levels. After removing the ligamentous section between L4 and L5, a trapezoidal silicone block (1.00 mm long × 1.3 to 1.2 mm wide × 1.0 mm high) was inserted into the epidural space below the L5 and L6 spinal plates without damaging the dural sac. At this time, a Sham group was a group that was subjected to only posterior […] on the animal without inserting a silicone block.
To be used as a peripheral nerve injury animal model, a sciatic nerve injury (SNI) model was prepared (FIG. 1C). Specifically, 200 to 220 g of male adult Sprague-Dawley rats were anesthetized by intraperitoneal injection of chloral hydrate (500 mg/kg), and then three terminal branches (tibial, common peroneal, and sural nerves) of the right sciatic nerve were approached, and the tibia nerve and the peroneal nerve were tightly ligated with 4-0 silk, and neurectomy was performed at a distal 3 mm position of the ligation site. At this time, a Sham group was a group that exposed only the sciatic nerve without damage.
In order to confirm a neuropathic pain inhibitory effect of YJ102 (Chemical Formula 1), a compound of the present disclosure, in the three nerve injury animal models prepared in Example 1 above, rats having pain on week 3 (SNI model) or week 4 (SCI model and LSS model) after surgery were selected and administered orally (p.o.) at 10 mg/kg or 20 mg/kg of YJ102 dissolved in a solution of DMSO, methyl pyrrolidinone, and water (1 : 1.5 : 1), or intraperitoneally injected (i.p. injection) at 1, 2, or 5 mg/kg of YJ102. In a positive control group, gabapentin or pregabalin dissolved in saline was intraperitoneally injected at a concentration of 5 mg/kg, and in a Vehicle group, the same amount of a solution of DMSO, methyl pyrrolidinone, and water was administered. Thereafter, in order to measure mechanical allodynia, the rats were located at the bottom of a transparent plastic box (10 cm × 10 cm) on top of a wire mesh (3 mm × 3 mm) and subjected to an adaptation period for approximately 20 minutes. Von-Frey filaments were applied to the soles of both paws and used with stiff nylon von-Frey monofilament series ([…], Stoelting, WoodDale, IL, USA; equivalent in grams to 0.4, 0.6, 1.0, 2.0, 4.0, 6.0, 8.0 and 15.0) with logarithmic increases in tactile (mechanical) sensitivity. […]

[4] = test system: bladder wall; assay: Bladder hypertrophy (H&E) and collagen content in bladder muscle (Masson's trichrome) after spinal cord injury; assay type: in vivo, Sprague-Dawley rats
Text: As one indicator of bladder dysfunction, bladder hypertrophy, which was a thicker bladder wall, and changes in collagen content in the bladder muscle were identified. Specifically, a spinal cord injury […] animal model was perfused through the left ventricle, and fixed with 4% paraformaldehyde, and the bladder was extracted, and then embedded in an optimal cutting temperature (OCT) compound, and the tissue was sectioned at a 10 µm thickness using a cryostat. In order to measure the bladder wall thickness, Hematoxylene & Eosin (Abcam) staining was performed according to a manufacturer's protocol, and in order to measure the collagen content in the muscle, Masson's trichrome (Sigma-Aldrich) staining was performed.

[5] = test system: IMQ psoriasis animal model; assay: Spleen hypertrophy in IMQ psoriasis animal model; assay type: in vivo, C57BL/6 mouse; settings: Day 6, vs Vehicle group
Protocol: Psoriasis caused by excessive production of skin cells was a chronic skin disease associated with various factors, including autoimmune diseases, and its symptoms included red and thickened skin and abnormally occurring scaling. […] Specifically, the back region of a C57BL/6 mouse (male, 18 to 20 g, 8 weeks) (Daehan Biolink, Eumseong, Korea) was shaved to remove hair, and then applied with IMQ cream (83 mg/day) (5%) for consecutive 5 days from Day 0 to Day 4 to induce psoriasis-like skin inflammation, and a normal control mouse (Sham) was applied with Vaseline cream (FIG. 16A).
The spleen hypertrophy occurred in mice induced with psoriasis, the longitudinal diameter of the spleen in psoriasis patients was increased compared to that of non-psoriasis patients, and a correlation between the disease duration and the spleen diameter was reported. Therefore, on Day 6, the spleen of the mouse in each group was extracted and weighed to determine the degree of spleen hypertrophy.

[6] = all three models (SCI, LSS, SNI), orally 10 mg/kg or 20 mg/kg
[7] = day 1 after spinal cord injury, H&E

CCc1ccc(N(C(=O)COC)c2nc3cc(Cl)ccc3o2)cc1 [YJ102]
mRNA and protein expression of proNGF [1]: significantly inhibited
demethylation activation of H3K27Me3 [2]: significantly inhibited
expression of JMJD3 [2]: significantly inhibited
duration of the analgesic effect [3, 6]: ≥ 4 h
time from which the mechanical allodynia threshold was increased after administration [3, 6]: 30 min
analgesic effect compared with gabapentin or pregabalin ([3]; intraperitoneal, same concentration as gabapentin or pregabalin, SCI, LSS, SNI models): more than twice as high
duration of the analgesic effect compared with existing drugs ([3]; intraperitoneal, versus gabapentin and pregabalin, SCI, LSS, SNI models): more than three times longer
collagen content in the muscle ([4]; after spinal cord injury, Masson's trichrome): maintained at a level almost similar to that of the normal group
thickness of the lamina propria [4, 7]: significantly reduced
thickness of the muscle layer [4, 7]: significantly reduced
thickness of the urothelium layer [4, 7]: significantly reduced
size of the spleen [5]: significantly reduced
weight of the spleen [5]: significantly reduced
